Values of other authors as cited in patent US11628185B2, “Stabilized active oxygen-generating antiseptic compositions, irrigation solutions, and articles” (priority 2021, dated 2023).

How the values were obtained:
[1] = topical application prior to wound closure
[2] = tested on: osteoblasts, fibroblasts, and myoblasts
[3] = all tested concentrations, even dilute 0.35%; used for more than 1 minute

Substance: povidone-iodine
- serum iodine level [1]: significant increases
- effect of lavage on post-operative infection risk (post-operative infection; Mayo Clinic case series, more than 10,000 THAs and TKAs): no risk reduction effect
- post-operative infection rates versus non-povidone-iodine lavage (post-operative infection; meta-analysis March 2020, seven studies, 31,213 TJA cases): no differences
- effect on cell migration and survival [2]: inhibiting cell migration and survival
- chondrotoxic effect [3]: pronounced chondrotoxic effect
